In PubChem BioAssay (NCI):
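Cultured in 96-well plates, cells were exposed to test compound for 48 hours across five concentrations. At the GI50, growth is halved. TGI denotes the concentration required for complete inhibition of growth.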

Experiments:
Experiment in all cases: NCI anticancer screen, dose series, 48 h
HCC-2998 colon = test system: HCC-2998 colon
SF-539 CNS = test system: SF-539 CNS
NCI-H460 lung = test system: NCI-H460 lung
A549 NSCLC = test system: A549 NSCLC
HT29 colon = test system: HT29 colon
M14 melanoma = test system: M14 melanoma
TK-10 renal = test system: TK-10 renal
EKVX NSCLC = test system: EKVX NSCLC

Row | Structure (SMILES) | GI50 (HCC-2998 colon) | TGI (HCC-2998 colon) | GI50 (SF-539 CNS) | TGI (SF-539 CNS) | GI50 (NCI-H460 lung) | TGI (NCI-H460 lung) | GI50 (A549 NSCLC) | TGI (A549 NSCLC) | GI50 (HT29 colon) | TGI (HT29 colon) | GI50 (M14 melanoma) | TGI (M14 melanoma) | GI50 (TK-10 renal) | TGI (TK-10 renal) | GI50 (EKVX NSCLC) | TGI (EKVX NSCLC)
1 | CCN1CCN(Cc2ccc(Nc3ncc(F)c(-c4cc(F)c5nc(C)n(C(C)C)c5c4)n3)nc2)CC1 | 5.35 µM | 11.5 µM | 7.39 µM | 15.7 µM | 0.959 µM | 12.7 µM | 0.411 µM | 11.9 µM | 0.268 µM | 10.8 µM | 3.6 µM | 11.5 µM | 0.029 µM | 8.63 µM | – | –
2 | NS(=O)(=O)c1ccc(N=Nc2c(O)[nH]c3ccc(C(=O)NCCCn4ccnc4)cc23)cc1 | > 25 µM | > 25 µM | > 25 µM | > 25 µM | > 25 µM | > 25 µM | > 25 µM | > 25 µM | > 25 µM | > 25 µM | > 25 µM | > 25 µM | > 25 µM | > 25 µM | > 25 µM | > 25 µM
3 | CCOC(=O)c1c(C)n([O-])c2cc(F)c(F)cc2[n+]1=O | – | – | 3.91 µM | 8.84 µM | 2.88 µM | 15.9 µM | 6.78 µM | 26 µM | 0.516 µM | 3.19 µM | 1.09 µM | 2.58 µM | 17.4 µM | 32.5 µM | 1.96 µM | 3.98 µM
4 | CCOC(=O)c1c(-c2ccccc2)n2c(=O)cc(C)c3c(O)c(O)cc1c32 | – | – | 4.56 µM | 25.1 µM | 2.6 µM | 25.3 µM | 5.46 µM | 24.6 µM | 7.18 µM | 84 µM | 5.84 µM | 20.2 µM | 22.7 µM | > 100 µM | 8.73 µM | 24.3 µM
5 | O=S(=O)(NCCNc1nccc(-c2c(-c3ccc(F)cc3)nc3sccn23)n1)c1ccc(O)cc1 | 15.5 µM | 51.1 µM | 11.3 µM | 30.7 µM | 0.845 µM | 27.8 µM | 3.28 µM | 43.1 µM | 2.09 µM | 37.4 µM | 3.36 µM | 18.1 µM | 4.81 µM | 26.3 µM | – | –
6 | CCCCCOC(=O)Nc1nc(=O)n(C2OC(C)C(O)C2O)cc1F (configuration not stated) | 271 µM | > 10000 µM | > 10000 µM | > 10000 µM | – | – | – | – | > 10000 µM | > 10000 µM | > 10000 µM | > 10000 µM | > 10000 µM | > 10000 µM | – | –
7 | Cc1ccc2ncnc(N(C)C3CCCCC3)c2c1 | 28.8 µM | 70.2 µM | – | – | 25.3 µM | > 100 µM | 16.1 µM | 44.2 µM | – | – | 24.3 µM | 63.4 µM | 36 µM | > 100 µM | – | –
8 | Nc1c(C(=O)Nc2cccc(Cl)c2)sc2nc3c(cc12)C(O)CCC3 (configuration not stated) | 2.39 µM | 25.7 µM | 0.275 µM | 0.965 µM | 0.388 µM | 16.8 µM | 0.465 µM | 17.4 µM | 0.315 µM | 12.2 µM | 0.367 µM | > 49.7 µM | 10.8 µM | 36.8 µM | – | –
9 | CC(=O)Oc1ccc(C2OC(c3ccc4ccccc4c3OC(C)=O)=NN2C(C)=O)c(OC(C)=O)c1 (configuration not stated) | 0.427 µM | 29 µM | 0.342 µM | 12.3 µM | 0.346 µM | > 36 µM | 0.412 µM | > 48.5 µM | 1.62 µM | > 52.8 µM | 0.368 µM | > 45.6 µM | 0.774 µM | > 53.8 µM | – | –
10 | COC(=O)C1C(C(=O)O)C2(c3ccccc3)C(=O)C1(c1ccccc1)C(c1ccc(OC)cc1)=C2c1ccc(OC)cc1 (configuration not stated) | 13.9 µM | 27.8 µM | 17.7 µM | 34 µM | 13.7 µM | 31 µM | 15.7 µM | 33.5 µM | – | – | 18.6 µM | 34.8 µM | 31.8 µM | > 100 µM | 18.6 µM | 52.7 µM
11 | COc1cc2c(Nc3ccc(-c4ccc(N)cc4)cc3)ncnc2c(OC)c1OC | – | – | 2.42 µM | > 28.7 µM | 2.89 µM | > 66.4 µM | 2.68 µM | > 100 µM | 8.02 µM | > 81.7 µM | 0.542 µM | > 67.1 µM | 21 µM | > 100 µM | 5.4 µM | > 100 µM
12 | CC(=O)OC(COc1ccc2c(c1)[n+]([O-])nc(N)[n+]2[O-])CN1CCCCC1 (configuration not stated) | – | 22.5 µM | – | 39 µM | – | 21.8 µM | – | 40.7 µM | – | 23.1 µM | – | 38.7 µM | – | 96.4 µM | – | –
13 | COc1ccc(OC)c(C2=C(c3cn(C)c4ccccc34)C(=O)NC2=O)c1 | > 25 µM | > 25 µM | > 25 µM | > 25 µM | > 25 µM | > 25 µM | > 25 µM | > 25 µM | > 21.5 µM | > 25 µM | > 25 µM | > 25 µM | > 25 µM | > 25 µM | – | –
14 | C=C(C)COc1ccc2c(c1)CCC1C2CCC2(C)C(=O)/C(=N/O)CC12 (configuration not stated) | – | – | – | 26.3 µM | – | 3.14 µM | – | 26.4 µM | – | 2.72 µM | – | 14.4 µM | – | 5.58 µM | – | 9.32 µM
15 | COc1ccc2nc3cc([N+](=O)[O-])ccc3c(NCCO)c2c1 | – | – | 3.35 µM | 13 µM | 1.66 µM | 4.9 µM | 4.44 µM | 23.9 µM | 2.34 µM | 5.13 µM | 1.89 µM | 4.28 µM | – | – | 24.4 µM | –
16 | COC(=O)C1c2cc3c(c(O)c2CCC1(C)O)C(=O)c1c(O)cc2c(c1C3=O)OC1OC2(C)C(O)C(N(C)C)C1O (configuration not stated) | – | – | – | 3.88 µM | – | 2.11 µM | – | 0.916 µM | – | 1.29 µM | – | 5.33 µM | – | 1.66 µM | – | 0.774 µM
17 | CNC(=O)/C=C/C1=CN2C(=O)c3ccc(C)c(O)c3NC(OC)C2C1 (configuration not stated) | – | < 0.0173 µM | – | < 0.0176 µM | – | 1.03 µM | – | > 100 µM | – | 3.29 µM | – | 0.0191 µM | – | – | – | < 0.0344 µM
18 | O=C(CCN1CCCCC1)c1csc2ccccc12 | – | – | – | > 100 µM | – | > 100 µM | – | > 100 µM | – | > 100 µM | – | > 100 µM | – | > 100 µM | – | > 100 µM
19 | O=C1/C(=C/c2ccc(Cl)cc2)CN(Cc2cn(CCCNc3ccnc4cc(Cl)ccc34)nn2)C/C1=C\c1ccc(Cl)cc1 | 0.273 µM | 0.712 µM | 0.645 µM | 1.72 µM | 0.429 µM | 2.06 µM | 1.15 µM | 2.56 µM | 0.27 µM | 0.775 µM | 1.72 µM | 3.68 µM | 1.7 µM | 3.15 µM | – | –
